According to patent US20050209446A1, “Novel 15-membered cyclic azalide, novel 16-membered cyclic diazalide derivative, and process for producing these” (Meiji Seika Kaisha Ltd., priority 2002, published 2005):
≈ marks a conversion by molar mass, not a printed value.

How the values were obtained:
[1] = test system: Haemophilus influenzae 9334; assay: Antibacterial activity test in vitro (agar dilution MIC); type: cell-based; conditions: blood agar medium, 37° C., about 20 hours
Method: (§1) Antibacterial activities in vitro of the compounds of Examples 19 and 25 were measured as follows by referring to the standard method of Japanese Society of Chemotherapy (Chemotherapy, Vol. 29, p. 76-79, 1981). Antibacterial activities of miokamycin (MOM) was measured in the same manner for comparison.
(§2) For each of the solutions of the test drugs, which were dissolved in methanol so as to be 6,400 μg/ml, serial two-fold diluents with methanol were prepared. Each 200 μl of the test drug solutions prepared was placed in a laboratory dish, and the agar medium for sensitivity measurement, which was added with 5% equine sterile defibrinated blood, 15 μg/ml, β-Nicotinamide-adenine dinucleotide and 2.5 μg/ml hemin, was dispensed in 10 ml aliquots into the dish and then mixed with the solution for dilution to prepare the agar plate containing the test drug. A given amount of the liquid medium for the sensitivity measurement, which was prepared so as to contain a given amount of test bacterium was inoculated on the agar plate containing the test drug by a microplanter (Sakuma Seisakusyo, Co. Ltd.), and after the inoculation, the plate was incubated at 37° C. for about 20 hours. After the incubation, the existence of growth of the test bacterium was visually observed, and a minimum concentration at which no growth was observed was defined as a minimum inhibitory concentration of a test drug (MIC) against each of test bacteria.

[2] = test system: Micrococcus luteus ATCC9341; assay: as above; type: cell-based; conditions: blood agar medium, 37° C., about 20 hours
Method: as §1, §2

[3] = test system: Moraxella catarrhalis W-0506; assay: as above; type: cell-based; conditions: 37° C., about 20 hours; for Minimum inhibitory concentration (MIC): blood agar medium
Method: as §1, §2

[4] = test system: Staphylococcus aureus Smith; assay: as above; type: cell-based; conditions: blood agar medium, 37° C., about 20 hours
Method: as §1, §2

[5] = test system: Streptococcus pneumoniae DP1 TypeI; assay: as above; type: cell-based; conditions: blood agar medium, 37° C., about 20 hours
Method: as §1, §2

[6] = test system: Streptococcus pneumoniae IP692; assay: as above; type: cell-based; conditions: blood agar medium, 37° C., about 20 hours
Method: as §1, §2

[7] = test system: test bacteria; assay: Antibacterial activity test in vitro, overall statement; type: cell-based; conditions: summary of Table 1
Method: as §1
as §2, with “After the incubation, the existence of growth of the test bacterium was visually observed, and a minimum concentration at which no growth was observed was defined as a minimum inhibitory concentration of a test drug (MIC) against each of test bacteria.” left out

[8] = type: in vitro ADME, mouse
Method: Antibacterial activities of the compound of Example 19 after treatment with mouse liver homogenate were examined as follows. Antibacterial activities of MOM were examined in the same manner for comparison. The liver was collected from a mouse, and added with a phosphate buffer to prepare 5% homogenate. A 50 μl of the test drug solution, dissolved in methanol so as to be 150 μg/ml, was added to 1.45 ml of the mouse liver homogenate, and the mixture was allowed to react at 37° C. Each portion of the reaction mixture was collected at the beginning of the reaction, and after 10, 20 and 40 minutes, and added with a given volume of an acetonitrile solution to prepare each bioassay sample for the measurement of a concentration of the test drug. […] After the incubation, a diameter of growth inhibitory circle of Micrococcus luteus ATCC9341 observed around the paper disc was measured with a digital slide calipers. […] On the basis of a calibration curve which was drawn from the concentrations and the diameters of growth inhibitory circles of the standard solutions, residual activities of the samples at the above sampling times were calculated, and compared with antibacterial activities at the beginning of the reaction.

[9] = read-out: Minimum inhibitory concentration (MIC)

Row | SMILES | Minimum inhibitory concentration (MIC) [1] | Minimum inhibitory concentration (MIC) [2] | Minimum inhibitory concentration (MIC) [3] | Minimum inhibitory concentration (MIC) [4] | Minimum inhibitory concentration (MIC) [5] | Minimum inhibitory concentration (MIC) [6] | antibacterial activities compared with MOM [7] | residual antibacterial activities after treatment with mouse liver homogenate, compared with the start of the reaction [8] | MIC [1, 9] | MIC [2, 9] | MIC ([3]; W0506, blood agar medium, read-out: Minimum inhibitory concentration (MIC)) | MIC [4, 9] | MIC ([5]; DP1TYPEI, read-out: Minimum inhibitory concentration (MIC)) | MIC [6, 9]
1 | CCC(=O)O[C@@H]1CC(=O)O[C@H](C)CCN(CCCc2ccnc3ccccc23)C[C@H](O)[C@H](C)C[C@H](CC=O)[C@H](O[C@@H]2O[C@H](C)[C@@H](O[C@H]3C[C@@](C)(OC(C)=O)[C@@H](OC(=O)CC)[C@H](C)O3)[C@H](N(C)C)[C@H]2O)[C@H]1OC [Example 25, (−)-(3R,4S,5S,6R,8R,9R,14R)-5-[4-O-(3-O-acetyl-2,6-dideoxy-3-C-methyl-4-O-propionyl-α-L-ribo-hexopyranosyl)-3,6-dideoxy-3-dimethylamino-8-D-glucopyranosyl]-6-formylmethyl-9-hydroxy-4-methoxy-8-methyl-3-propionyloxy-11-(3-(quinolin-4-yl)propyl)-11-aza-pentadecan-14-olide] | 1 µg/mL (≈ 0.984 µM) | 0.03 µg/mL (≈ 0.0295 µM) | 0.25 µg/mL (≈ 0.246 µM) | 0.5 µg/mL (≈ 0.492 µM) | 0.06 µg/mL (≈ 0.059 µM) | 0.06 µg/mL (≈ 0.059 µM) | higher antibacterial activities than MOM |  |  |  |  |  |  | 
2 | CCC(=O)O[C@@H]1CC(=O)O[C@H](C)CCN(CCCCc2ccccc2)C[C@H](O)[C@H](C)C[C@H](CC=O)[C@H](O[C@@H]2O[C@H](C)[C@@H](O[C@H]3C[C@@](C)(OC(C)=O)[C@@H](OC(=O)CC)[C@H](C)O3)[C@H](N(C)C)[C@H]2O)[C@H]1OC [Example 19] | 2 µg/mL (≈ 2.04 µM) | 0.03 µg/mL (≈ 0.0306 µM) | 0.25 µg/mL (≈ 0.255 µM) | 0.5 µg/mL (≈ 0.511 µM) | 0.06 µg/mL (≈ 0.0613 µM) | 0.13 µg/mL (≈ 0.133 µM) | higher antibacterial activities than MOM | no decrease in antibacterial activities |  |  |  |  |  | 
3 | CCC(=O)O[C@@H]1CC(=O)O[C@H](C)C/C=C/C=C/[C@H](OC(C)=O)[C@H](C)C[C@H](CC=O)[C@H](O[C@@H]2O[C@H](C)[C@@H](O[C@H]3C[C@@](C)(OC(C)=O)[C@@H](OC(=O)CC)[C@H](C)O3)[C@H](N(C)C)[C@H]2O)[C@H]1OC [MOM, miokamycin, reference compound] |  |  |  |  |  |  |  | apparent decreases in antibacterial activities | 4 µg/mL (≈ 4.45 µM) | 0.13 µg/mL (≈ 0.145 µM) | 1 µg/mL (≈ 1.11 µM) | 1 µg/mL (≈ 1.11 µM) | 0.25 µg/mL (≈ 0.278 µM) | 0.25 µg/mL (≈ 0.278 µM)
